Consider 1 compound from paper PMC7669869, “AdipoR1/AdipoR2 dual agonist recovers nonalcoholic steatohepatitis and related fibrosis via endoplasmic reticulum-mitochondria axis” (Nature Communications, 2020).

In one test the target is T1, AdipoR1 (Homo sapiens, UniProt Q96A54).
T1 construct: His; host or cells: HEK293
T1 sequence (Q96A54 1-375): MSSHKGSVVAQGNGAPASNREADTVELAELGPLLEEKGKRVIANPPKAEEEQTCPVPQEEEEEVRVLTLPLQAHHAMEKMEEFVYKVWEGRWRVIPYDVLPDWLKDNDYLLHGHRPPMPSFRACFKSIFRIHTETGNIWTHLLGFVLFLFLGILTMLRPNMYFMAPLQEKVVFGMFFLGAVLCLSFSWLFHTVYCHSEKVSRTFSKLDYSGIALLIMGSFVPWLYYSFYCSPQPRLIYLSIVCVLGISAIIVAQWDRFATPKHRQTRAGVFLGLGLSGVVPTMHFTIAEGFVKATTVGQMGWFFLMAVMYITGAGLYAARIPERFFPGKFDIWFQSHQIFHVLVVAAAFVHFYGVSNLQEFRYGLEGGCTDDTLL
Description: HTRF binding, AdipoR1 overexpression HEK293 cells. As to conditions: in words. The procedure: The expression plasmid of AdipoR1 and AdipoR2 were synthesized and codon optimized by Genescript (Nanjing, China) for their expression in HEK293 cell line. The concentration of FITC-JT003 was 0, 0.1, 0.25, 0.5, 1, 2.5 or 5 μM respectively. Unlabeled peptide JT003 was used as the control to measure the non-specific signal. 10E4 AdipoR1 and AdipoR2 overexpression cells, anti-His-Tb (ThermoFisher Scientific, USA) and JT003-FITC were added into a 384-well plate, with a total volume of 25μl. The mixtures were incubated at room temperature for 30 min in the dark. Fluorescent values at 520 nm and 620 nm were measured for Kd calculation.
Background: In TR-FRET formats the signal depends on donor and acceptor labels being close together.

The test system of the next test is HFD induced NASH mice. The test can be described thus: HFD mice: insulin tolerance test (ITT). It counts as in vivo, mouse. The settings on record: JT003 500 μg kg−1, in words. The procedure: For insulin tolerance test, one week after OGTT assay, 6 h fasted mice were treated with JT003, and the baseline blood glucose level was measured. An hour later, 0.25 U kg^−1 insulin (Novolin R, Denmark) were intraperitoneal injection to mice, blood glucose level was measured at 15, 30, 45, 60 min

For test [1], the system named is liver protein expression of HFD induced NASH mice. The test can be described thus: HFD mice: liver western blot. The test is classed as in vivo, mouse. The settings on record: JT003 500 μg kg−1, in words. The method, then: The NASH model was conducted with feeding a HFD for 16 weeks combine with a MCD diet (Methionine/Choline Deficient Diet, Medicience, China) in the last 4 weeks. Mice administered a MCS diet (Methionine/Choline Sufficient Diet, Medicience, China) serves as control group. NAFLD or NASH mice treated with JT003 for 4 weeks were used to evaluate the pharmacological effects (n = 6; 500 μg kg^−1; daily intraperitoneal injection). Food and water were provided ad libitum. The body weight of mice was examined every 3 days. The diet was renewed every 7 days. JT003 was diluted in PBS.
Total protein was isolated from cells or liver samples using RIPA lysis buffer (50.0 mM Tris-HCl (pH = 8.0), 150.0 mM NaCl, 0.02% NaN3, 0.1% SDS, 1% NP-40, 0.5% deoxysodium cholate, 1 mM EDTA, […]). The protein concentration was quantified with BCA kit (Pierce, ThermoFisher Scientific, USA). Thirty micrograms protein were separated by 10 or 12% sodium dodecyl sulfate-polyacrylamide gel electrophoresis depending on the band of target protein, then transferred onto equilibrated polyvinylidene difluoride membrane (PVDF, Immobilon®-PSQ transfer membranes, Merck Millipore, Germany). Membranes were incubated with primary antibodies overnight at 4 °C. Specific antibodies were listed in Supplementary Table 3. After incubation with the secondary antibody, proteins were detected by enhanced chemiluminescence (Glarity^TM Western ECL Substrate, Bio-Rad, USA) and the signals were recorded and quantified with Tanon-Image Software (Shanghai, China). Reference antibody GAPDH were used for data normalization.
A general note: A western blot detects proteins with antibodies after separation by electrophoresis.

The subject of test [2] is gene expression in PA induced HepG2 cells. Description: Quantitative RT-PCR in PA induced HepG2 cells. The test is classed as cell-based, human. The settings on record: for IL-1a mRNA, relative expression, Supplementary Figure 11a / IL-6 mRNA, relative expression, Supplementary Figure 11a / IL-8 mRNA, relative expression, Supplementary Figure 11a / TNFa mRNA, relative expression, Supplementary Figure 11a: PA induced HepG2 cells, PA+JT003. The procedure: Hepatoma carcinoma cell line HepG2 and human hepatic activated stellate cell line LX2 used in this study were purchased from Type Culture Collection of the Chinese Academy of Sciences (Shanghai, China). Cells were cultured in Dulbecco’s modified Eagle’s medium (DMEM) with 10% fetal bovine serum (FBS), supplemented with 1% penicillin–streptomycin (ThermoFisher Scientific, USA) at 37 °C in a humidified atmosphere of 5% CO2. In PA (Sigma, USA) induced lipid accumulation cell model, HepG2 cells were seeded into a 6-well plate at 5E5 cells per well. 0.25 mM PA and/or 200 μM candidate peptides were co-incubated with cells for 24 h. Then Oil Red O staining was performed to evaluate the accumulation of lipid droplets. BSA (Sigma, USA) was used in this experiment as the negative control. For LX2 cells, 2E5 cells were seeded, then the adherent cells were exposed to 200 μM candidate peptides for another 48 h. Next, the cell protein was obtained and western blotting was performed. Candidate peptides were diluted in DMEM in a stock concentration of 1 M.
Liver total RNA was extracted by using Trizol reagent following the manufacture’s instruction (TransGen Biotech, China). The concentration of RNA was measured by Nanodrop 2000 (ThermoFisher Scientific, USA). cDNA was transcribed from 10ug total RNA with First Strand cDNA synthesis Super Mix (TransGen Biotech, China). The cDNA was diluted 1/50 and 1.0 uL were used as a template for qPCR. qPCR was performed with SYBR Green qPCR Super Mix (TransGen Biotech, China) in the Light Cycler 480 Real-Time PCR System (Roche, Swiss). Reference gene β-actin was used for data normalization. mRNA expression was analyzed with specific primers listed in Supplementary Table 2.

Structures are written as SMILES. Non-standard residues stand in square brackets, D forms with d. Residues, ends and D or L forms follow the SMILES beside them. Nva = CCC[C@H](N)C(=O)O

With `CCC[C@H](NC(=O)[C@@H]1CCCN1)C(=O)N[C@@H](CC(C)C)C(=O)N[C@@H](Cc1ccc(O)cc1)C(=O)N[C@@H](Cc1ccc(O)cc1)C(=O)N[C@@H](Cc1ccccc1)C(=O)N[C@@H](C)C(N)=O` [JT003] (H-P[Nva]LYYFA-NH2), the “Kd value for AdipoR1 compared to JT006 and ADP355” value at AdipoR1 is “significantly lower Kd value”. Also, in the test on HFD induced NASH mice, the “HFD-induced insulin resistance, insulin tolerance test” value is on record as “obviously ameliorated”. The “PI3K and Akt phosphorylation in liver tissue” value in test [1] was “increased”. Moreover, in test [1] (liver), the “AMPK and PPARα signaling (western blotting)” value is “activated apparently”; the “expression of downstream factor PPARγ” value is listed as “inhibited”; the “phosphorylation of PERK and its downstream eIF2α and JNK” value is listed as “decreased notably”. Further, in test [2] (HepG2, 0.25 mM PA + 200 μM JT003, in words), the “lipogenesis (FAS, SREBP-1C, SREBP-2 and ACC1) and fatty acid β-oxidation (ACOX, LCAD and PDK4) genes” value was “meliorated notably”. The “inflammatory factors and ER-mitochondrial axis dysfunction (mRNA)” value in test [2] (PA induced HepG2, 200 μM JT003, in words) is on record as “meliorated notably”. Moreover, in test [2] (replicate 1), the “IL-1a mRNA, relative expression, Supplementary Figure 11a” value (“IL-1a mRNA, relative expression” below) was found to be 1.056; the “IL-6 mRNA, relative expression, Supplementary Figure 11a” value (“IL-6 mRNA, relative expression” below) is given as 0.3197; the “IL-8 mRNA, relative expression, Supplementary Figure 11a” value (shortened to “IL-8 mRNA, relative expression”) was found to be 0.8479; the “TNFa mRNA, relative expression, Supplementary Figure 11a” value (“TNFa mRNA, relative expression” for short) is reported as 0.6008. For the same compound, in test [2] (replicate 2), the “IL-1a mRNA, relative expression” value was determined as 0.8256; the “IL-6 mRNA, relative expression” value turned out to be 0.3197; the “IL-8 mRNA, relative expression” value is reported as 0.8134; the “TNFa mRNA, relative expression” value is 0.8039. In addition, in test [2] (replicate 3), the “IL-1a mRNA, relative expression” value is listed as 0.9853; the “IL-6 mRNA, relative expression” value worked out at 0.4368; the “IL-8 mRNA, relative expression” value turned out to be 0.8277; the “TNFa mRNA, relative expression” value came to 0.7928. Besides, in test [2] (replicate 4), the “IL-1a mRNA, relative expression” value worked out at 0.9145; the “IL-6 mRNA, relative expression” value worked out at 0.3522; the “IL-8 mRNA, relative expression” value was 0.8368; the “TNFa mRNA, relative expression” value was determined as 0.7583.
